We go through 1 molecule from US10179774B2, “Synthesis of chirally purified substituted benzothiazole diamines” (priority 2007, dated 2019).

The test system of data set [1] is rodents. As to conditions: single oral dose, 'and above'; cited from earlier work.
The subject of the next data set is monkeys. As to conditions: single oral dose; cited from earlier work.
Another data set deals with dogs. As to conditions: single oral dose, 'and above'; cited from earlier work.
The test system of data set [2] is rodents.
Another data set has as its system humans. The following applies: cited from earlier work.

As for `CCCNC1CCc2nc(N)sc2C1` (stereo not shown) [pramipexole], in the data set on rodents [1], the “doses at which death occurred” value was 70 to 105 mg/kg. Further, the “dose at which major excitation was displayed” value in the data set on monkeys is listed as 3.5 mg/kg. The “dose at which vomiting occurred” value in the data set with dogs is on record as at least 0.0007 mg/kg. The “equivalent human dose of the rodent lethal dose” value with rodents [2] (human equivalent of 70-105 mg/kg in rodents) was in the range of 7 to 12 mg/kg. For the same molecule, the “equivalent human dose of the rodent lethal dose for a 70 kg individual” value with rodents [2] (rodents, in vivo) is 500 to 850 mg. The “initial single dose not tolerated” value in the data set on humans (human subjects, initial single dose) is “greater than 0.20 mg”. Moreover, the “dose shown to cause somnolence” value with humans (humans, 'as low as') was 1.5 mg.
